Measured values from PubChem BioAssay AID2060610 (Molecular Pharmacology Branch, DTP, NCI, 2025).

System: 616215-338-R-J1-PDC complex spheroids, viability % test/control
Experiment: Anticancer human tumor 616215-338-R-J1-PDC patient-derived colon adenocarcinoma cell line growth inhibition [CLK]
Conditions: for IC50: curve of first compound; for viability, T/C: stronger effect = lower value; active = viability on the fitted dose curve at most 10% of control; inactive = the rest
How it was run: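 Multi-cell-type spheroids combined patient-derived tumor cells with HUVEC endothelial cells and human mesenchymal stem cells. Paired agents were dosed in half-log steps down from about clinical Cmax, or from 10 microM where Cmax was unknown.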

[1] = second compound 0.0316 µM, first compound 0.0316 µM
[2] = second compound 0.0316 µM, first compound 0.1 µM
[3] = second compound 0.0316 µM, first compound 0.316 µM
[4] = second compound 0.0316 µM, first compound 1 µM
[5] = second compound 0.0316 µM, first compound 3.16 µM
[6] = second compound 0.0316 µM, first compound 10 µM
[7] = second compound 0.1 µM, first compound 0.0316 µM
[8] = second compound 0.1 µM, first compound 0.1 µM
[9] = second compound 0.1 µM, first compound 0.316 µM
[10] = second compound 0.1 µM, first compound 1 µM
[11] = second compound 0.1 µM, first compound 3.16 µM
[12] = second compound 0.1 µM, first compound 10 µM
[13] = second compound 0.316 µM, first compound 0.0316 µM
[14] = second compound 0.316 µM, first compound 0.1 µM
[15] = second compound 0.316 µM, first compound 0.316 µM
[16] = second compound 0.316 µM, first compound 1 µM
[17] = second compound 0.316 µM, first compound 3.16 µM
[18] = second compound 0.316 µM, first compound 10 µM
[19] = second compound 1 µM, first compound 0.0316 µM
[20] = second compound 1 µM, first compound 0.1 µM
[21] = second compound 1 µM, first compound 0.316 µM
[22] = second compound 1 µM, first compound 1 µM
[23] = second compound 1 µM, first compound 3.16 µM
[24] = second compound 1 µM, first compound 10 µM
[25] = second compound 3.16 µM, first compound 0.0316 µM
[26] = second compound 3.16 µM, first compound 0.1 µM
[27] = second compound 3.16 µM, first compound 0.316 µM
[28] = second compound 3.16 µM, first compound 1 µM
[29] = second compound 3.16 µM, first compound 3.16 µM
[30] = second compound 3.16 µM, first compound 10 µM
[31] = second compound 10 µM, first compound 0.0316 µM
[32] = second compound 10 µM, first compound 0.1 µM
[33] = second compound 10 µM, first compound 0.316 µM
[34] = second compound 10 µM, first compound 1 µM
[35] = second compound 10 µM, first compound 3.16 µM
[36] = second compound 10 µM, first compound 10 µM
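Also: spheroids exposed to agents for 7 days.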
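For viability, T/C in this document: 100% = DMSO vehicle wells.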

COC1C=CCC(C)C(C)S(=O)(=O)NC(=O)c2ccc3c(c2)N(CC2CCC21)CC1(CCCc2cc(Cl)ccc21)CO3 (centres undefined) + CN1CCN(c2cc(C(=O)Nc3cc4cc(-c5cnn(C)c5)ccc4cn3)ccn2)CC1
2870 nM: IC50 (second compound 0.1 µM)
2360 nM: IC50 (second compound 0.0316 µM)
active: viability, T/C [6] 0.01% | viability, T/C [12] 0.01% | viability, T/C [19] 0.68% | viability, T/C [20] 0.08% | viability, T/C [21] 0.17% | viability, T/C [22] 0.14% | viability, T/C [23] 0.94% | viability, T/C [24] 0.01% | viability, T/C [25] 0.04% | viability, T/C [26] 0.07% | viability, T/C [27] 0.18% | viability, T/C [28] 0.16% | viability, T/C [29] 0.18% | viability, T/C [30] 0.01% | viability, T/C [31] 0.08% | viability, T/C [32] 0.09% | viability, T/C [33] 0.24% | viability, T/C [34] 0.27% | viability, T/C [35] 0.33% | viability, T/C [36] 0.01%
inactive: viability, T/C [1] 45.7% | viability, T/C [2] 32.5% | viability, T/C [3] 111% | viability, T/C [4] 106% | viability, T/C [5] 41.9% | viability, T/C [7] 41.4% | viability, T/C [8] 44.4% | viability, T/C [9] 122% | viability, T/C [10] 116% | viability, T/C [11] 47.2% | viability, T/C [13] 9.08% | viability, T/C [14] 9.53% | viability, T/C [15] 21.3% | viability, T/C [16] 28.6% | viability, T/C [17] 20% | viability, T/C [18] 0.01%
< 31.6 nM: IC50 (second compound 0.316 µM) | IC50 (second compound 1 µM) | IC50 (second compound 3.16 µM) | IC50 (second compound 10 µM)

O=c1[nH]cc(F)c(=O)[nH]1 + CNC(=O)c1ccc(Nc2nc(OC3CCCC3)c3c(-c4ccc5nc(C)oc5c4)c[nH]c3n2)c(OC)c1
inactive: viability, T/C [1] 96.7% | viability, T/C [2] 110% | viability, T/C [3] 60.2% | viability, T/C [4] 52.3% | viability, T/C [5] 43.1% | viability, T/C [6] 41.4% | viability, T/C [7] 47% | viability, T/C [8] 45.9% | viability, T/C [9] 35% | viability, T/C [10] 34.1% | viability, T/C [11] 40.9% | viability, T/C [12] 36.5% | viability, T/C [13] 41.6% | viability, T/C [14] 41.7% | viability, T/C [15] 33.6% | viability, T/C [16] 37.3% | viability, T/C [17] 36.6% | viability, T/C [18] 39.3% | viability, T/C [19] 43.4% | viability, T/C [20] 38% | viability, T/C [21] 36.3% | viability, T/C [22] 37.8% | viability, T/C [23] 38.2% | viability, T/C [24] 33.3% | viability, T/C [25] 42.3% | viability, T/C [26] 42.2% | viability, T/C [27] 38% | viability, T/C [28] 32.6% | viability, T/C [29] 36% | viability, T/C [30] 36.4% | viability, T/C [31] 51.1% | viability, T/C [32] 41.3% | viability, T/C [33] 41.8% | viability, T/C [34] 38.5% | viability, T/C [35] 37.1% | viability, T/C [36] 39.2%
707 nM: IC50 (second compound 0.0316 µM)
< 31.6 nM: IC50 (second compound 0.1 µM) | IC50 (second compound 0.316 µM) | IC50 (second compound 1 µM) | IC50 (second compound 3.16 µM) | IC50 (second compound 10 µM)
